Patent US20050014706A1, “Method of treating tuberculosis” (priority 2003, published 2005)
≈ marks a conversion by molar mass, not a printed value. Like-named read-outs stand apart in the source and are kept apart here.

Tests used:
M. tuberculosis H37Rv [1] = conditions: positive quality control, MABA; cited from earlier work
VERO cells [2] = test system: VERO cells
M. tuberculosis H37Rv [3] = assay: MIC vs. M. tuberculosis H37Rv, microplate Alamar Blue assay (MABA); assay type: cell-based; conditions: for MIC / activity vs. M. tuberculosis in words: in vitro; for enhancement in potency of macrolide over counterpart ketolide: vs. telithromycin, RU004, RU56006 respectively
[4] = test system: J774.1 macrophage cell line; assay: Cytotoxicity against J774.1 macrophage cell line; assay type: cell-based, murine; conditions: for IC50: Mus musculus, J774.1
VERO cells [5] = assay: Cytotoxicity against VERO cells (MTS, 72 hours); conditions: for IC50: read-out: Vero IC50 (toxicity); for toxicity / cytotoxicity in words: in vitro study
[6] = Overt toxicity in mice, escalating 5-day cycles; assay type: in vivo, Balb/C mice; conditions: once daily 5-day cycles, sequentially 200, 300, 400, 500 mg/kg
Description: Prior to assessing in vivo efficacy, RU66252 and RU69874 were administered to pairs of female Balb/C mice once daily for 5-day cycles, and observed for overt signs of toxicity (e.g., weight loss, ruffled fur, and huddling), after which the mice were rested for 1 or 2 days. Then the dosage was increased for another 5-day cycle. Overall, the same mice received sequentially for 5 days: 200, 300, 400, and 500 mg/kg.

M. tuberculosis Erdman = assay type: in vivo, BALB/c mice; conditions: for activity against M. tuberculosis in the acute phase of infection: 100 and 200 mg/kg qd (RU60887 100 mg/kg only)
M. tuberculosis = assay: Activity against M. tuberculosis in mice (follow-up, dose response); assay type: in vivo
tubercle bacillus [7] = conditions: literature (Luna-Herrera 1995; Truffot-Pernot 1995); cited from earlier work
tubercle bacillus [8] = conditions: literature; cited from earlier work
[9] = Mycobacterium tuberculosis, H37RV, Table 1a, 11,12-carbamate derivatives, read-out: Anti-TB Activity MIC
[10] = Mycobacterium tuberculosis, H37RV, read-out: minimum inhibitory concentration (MIC) against M. tuberculosis
[11] = Table 1a, J774 cells, read-out: J774 IC50 (toxicity)

| Compound | MIC (M. tuberculosis H37Rv [3]; [9]) [µM] | MIC (M. tuberculosis H37Rv [3]; [10]) [µM] | MIC / activity vs. M. tuberculosis in words (M. tuberculosis H37Rv [3]) | IC50 [4, 11] [µM] | IC50 (VERO cells [5]; Chlorocebus sabaeus, Vero) [µM] | enhancement in potency of macrolide over counterpart ketolide (M. tuberculosis H37Rv [3]) [fold] | toxicity / cytotoxicity in words (VERO cells [5]) | overt signs of toxicity (weight loss, ruffled fur, huddling) [6] | activity against M. tuberculosis in the acute phase of infection (M. tuberculosis Erdman) | other results |
| --- | --- | --- | --- | --- | --- | --- | --- | --- | --- | --- |
| NNC(=O)c1ccncc1 [Isoniazid] |  |  |  |  |  |  |  |  |  | expected MIC range of quality control compound (M. tuberculosis H37Rv [1]): 0.025 to 0.1 µg/mL |
| CC[C@H]1OC(=O)[C@@](C)(F)C(=O)[C@H](C)[C@@H](O[C@@H]2O[C@H](C)C[C@H](N(C)C)[C@H]2O)[C@](C)(OCC#Cc2cc(-c3cnc4ccccc4c3)no2)C[C@@H](C)C(=O)[C@H](C)[C@H]2NC(=O)O[C@@]21C [Compound A323348] | 0.38 (≈ 0.323 µg/mL) | 0.38 (≈ 0.323 µg/mL) | very low | 15.3 | 24.3 |  |  |  |  | toxicity / cytotoxicity in words (VERO cells [2]): comparable to clarithromycin |
| CC[C@H]1OC(=O)[C@H](C)C(OC2CC(C)(OC)[C@@H](O)[C@H](C)O2)[C@H](C)[C@@H](O[C@@H]2O[C@H](C)C[C@H](N(C)C)[C@H]2O)[C@](C)(OC)C[C@@H](C)C(=O)[C@H](C)[C@H]2N(NCCCc3ccnc4ccccc34)C(=O)O[C@]12C (stereo partly drawn) [RU66252] |  |  | very low |  |  | 16 | comparable to clarithromycin | No signs of overt toxicity | dose-dependent activity | MIC (M. tuberculosis H37Rv [3]; Table 1a, 11,12-carbamate derivatives, read-out: Anti-TB Activity MIC): 0.25 µM (≈ 0.239 µg/mL); MIC (M. tuberculosis H37Rv [3]; Table 3, parallel-synthesis carbazate library products): 9 µM (≈ 8.61 µg/mL); MIC vs. M. tuberculosis (M. tuberculosis H37Rv [3]; follow-up assays): about 9 μM; MIC (M. tuberculosis H37Rv [3]; read-out: minimum inhibitory concentration (MIC) against M. tuberculosis): 0.25 µM (≈ 0.239 µg/mL); colonies from treated mouse lung homogenates (M. tuberculosis Erdman; 10^−2 dilution plates): no colonies; M. tuberculosis inhibition in mice (M. tuberculosis; 150 mg/kg and 200 mg/kg): significant; dose response in mice (M. tuberculosis; between 50 and 200 mg/kg): shows a dose response; activity against M. tuberculosis in mice (M. tuberculosis; mice): active |
| CC[C@H]1OC(=O)[C@H](C)[C@@H](O[C@H]2C[C@@](C)(OC)[C@@H](O)[C@H](C)O2)[C@H](C)[C@@H](O[C@@H]2O[C@H](C)C[C@H](N(C)C)[C@H]2O)[C@](C)(OC)C[C@@H](C)C(=O)[C@H](C)[C@@H](O)[C@]1(C)O [Clarithromycin, reference compound] |  |  |  |  |  | 16 |  |  |  | MIC (M. tuberculosis H37Rv [3]; Table 2a, 11,12-diols, read-out: Anti-TB Activity MIC): 8 µM (≈ 5.98 µg/mL); IC50 (VERO cells [5]; Table 2a, Vero cells): 41 µM; activity in mouse models (tubercle bacillus [7]): marginal and nil; MIC against the tubercle bacillus (tubercle bacillus [8]): 4 to 64 µg/mL |
| CC[C@H]1OC(=O)[C@H](C)[C@@H](O[C@H]2C[C@@](C)(OC)[C@@H](O)[C@H](C)O2)[C@H](C)[C@@H](O[C@@H]2O[C@H](C)C[C@H](N(C)C)[C@H]2O)[C@](C)(OC)C[C@@H](C)C(=O)[C@H](C)[C@H]2N(CCCCn3cnc(-c4cccnc4)c3)C(=O)O[C@]12C [RU69874] | 0.38 (≈ 0.369 µg/mL) | 0.38 (≈ 0.369 µg/mL) | very low | 58.6 | 27 | 126 | comparable to clarithromycin | No signs of overt toxicity | less activity | selectivity index (SI) ([4]; J774 cells): 154; IC50 ([4]; based on J774 cells, read-out: toxicity): 59 µM |
